Earlier results on 2 compounds are cited in patent US11559045B2, “Synergistic mixture for inducing hygienic behavior in honey bees, and related compositions and methods” (University of North Carolina at Greensboro, priority 2019, dated 2023).

The series deals with honey bees. The conditions noted are these: previously shown (US 2018/0177160; Nazzi et al. 2004).

On to `CCCCCCCCC/C=C\CCCCCCCCCCCCCCCCCCCCCC` [Compound (I), (Z)-10-tritriacontene], for which the “induction of hygienic behavior in honey bees” value is “induce hygienic behavior”.

With `CCCCC/C=C\CCCCCCCC` [Compound (IV), (Z)-6-pentadecene], the “induction of hygienic behavior in honey bees” value is “induce hygienic behavior”.
